According to patent US9388165B2, “Isoquinoline-5-carboxamide derivative having inhibitory activity for protein kinase” (HANMI PHARM. CO., LTD., priority 2012, dated 2016):
Blank lines part the entries; values can stand above or below the molecule they belong to.

Assays:
C-Raf = C-Raf (Homo sapiens (Human), UniProt P04049, Y340D/Y341D); assay: Inhibitory activity against C-Raf kinase (Invitrogen Kinase Profiling Service); format: biochemical
Procedure: (§1) The compounds prepared in Examples were tested for inhibitory activities against three subtypes of RAF, i.e. RAF1 Y340D Y341D, BRAF normal type and BRAF V600E, using Kinase Profiling Service (Invitrogen) according to the manufacturer's instructions. The levels of the inhibitory activities of the compounds against the enzymes were calculated as % inhibitory activities at various concentrations. Based on the % inhibitory activities, dose-response curves were plotted and IC50 values were calculated using GraphPad Prism software.

[1] = test system: HepG2 cell lines (hepatoma carcinoma cell); assay: Inhibition on cell proliferation of HepG2 (SRB assay); format: cell-based; details: Homo sapiens, 72 hours treatment, SRB staining, read-out: Inhibitory activities against HepG2 (IC50)
Procedure: HepG2 cell lines (ATCC #HB-8065™) were obtained from ATCC (American type culture collection; Rockville, Md.). HepG2 cell lines were incubated in a MEM medium supplemented with 10% FBS (Gibco) and 1% penicillin/streptomycin (Gibco) under 37° C., 5% CO2 and 95% air. The carcinoma cells grown on the growth medium were transferred into a 96-well plate at a density of 5,000 cells/well (HepG2), and cultured for 18 hours or more. The cells were treated with 10 μM˜0.1 nM of the test compounds, and cultured for 72 hours. Subsequently, the cells were fixed with 10% TCA (trichloroacetic acid) and stained with SRB (sulforhodamine B), and absorbance values were measured at 540 nm. Then, IC50 values, i.e., the concentration of a compound to cause 50% reduction in proliferation of cancer cells, were calculated therefrom. The growth rates of cancer cells were calculated by Equation 1 or 2. [(Ti−Tz)/(C−Tz)]×100 (in case Ti>Tz) [Equation 1] [(Ti−Tz)/Tz]×100 (in case Ti<Tz) [Equation 2]
In Equations 1 and 2, ‘Tz’ refers to a the absorbance value measured in the cells just before the application of the test compound. ‘C’ refers to the absorbance value measured in the […], and ‘Ti’ refers to the absorbance value measured in the cells treated with the test compounds.
IC50 value is the concentration of the test compound when the value of Equation 1 is 50, which indicates the concentration of the test compound needed to reduce the growth of cancer cells to 50%. On each measurement, the test compounds were compared with a reference.

VEGFR-2 = VEGFR-2 (Homo sapiens (Human), UniProt P35968); assay: Kinase profiling, IC50; format: biochemical; details: read-out: Inhibitory activity (IC50, nM), VEGFR-2
Procedure: [The source words this procedure for another target and reports this target under the same test.] as §1

FGFR-1 = FGFR-1 (Homo sapiens (Human), UniProt P11362); assay: Kinase profiling, IC50; format: biochemical; details: read-out: Inhibitory activity (IC50, nM), FGFR-1
Procedure: [The source words this procedure for another target and reports this target under the same test.] as §1

Abl = Abl (Homo sapiens (Human), UniProt P00519); assay: Kinase profiling, IC50; format: biochemical; details: read-out: Inhibitory activity (IC50, nM), Abl
Procedure: [The source words this procedure for another target and reports this target under the same test.] as §1

FLT-3 = FLT-3 (Homo sapiens (Human), UniProt P36888); assay: Kinase profiling, IC50; format: biochemical; details: read-out: Inhibitory activity (IC50, nM), FLT-3
Procedure: [The source words this procedure for another target and reports this target under the same test.] as §1

IGF-1R = IGF-1R (Homo sapiens (Human), UniProt P08069); assay: Kinase profiling, IC50; format: biochemical; details: read-out: Inhibitory activity (IC50, nM), IGF-1R
Procedure: [The source words this procedure for another target and reports this target under the same test.] as §1

Her-2 = Her-2 (Homo sapiens (Human), UniProt P04626); assay: Kinase profiling, IC50; format: biochemical; details: read-out: Inhibitory activity (IC50, nM), Her-2
Procedure: [The source words this procedure for another target and reports this target under the same test.] as §1

PDGFR-β = PDGFR-β (Homo sapiens (Human), UniProt P09619); assay: Kinase profiling, IC50; format: biochemical; details: read-out: Inhibitory activity (IC50, nM), PDGFR-β
Procedure: [The source words this procedure for another target and reports this target under the same test.] as §1

EGFR = EGFR (Homo sapiens (Human), UniProt P00533); assay: Kinase profiling, IC50; format: biochemical; details: read-out: Inhibitory activity (IC50, nM), EGFR
Procedure: [The source words this procedure for another target and reports this target under the same test.] as §1

Src = Src (Homo sapiens (Human), UniProt P12931); assay: Kinase profiling, IC50; format: biochemical; details: read-out: Inhibitory activity (IC50, nM), Src
Procedure: [The source words this procedure for another target and reports this target under the same test.] as §1

B-Raf (WT) = B-Raf (WT) (Homo sapiens (Human), UniProt P15056); assay: Kinase profiling, IC50; format: biochemical; details: read-out: Inhibitory activity (IC50, nM), B-Raf (WT)
Procedure: as §1

PDGFR-α = PDGFR-α (Homo sapiens (Human), UniProt P16234); assay: Kinase profiling, IC50; format: biochemical; details: read-out: Inhibitory activity (IC50, nM), PDGFR-α
Procedure: [The source words this procedure for another target and reports this target under the same test.] as §1

B-Raf (V600E) = B-Raf (V600E) (Homo sapiens (Human), UniProt P15056, V600E); assay: Kinase profiling, IC50; format: biochemical; details: read-out: Inhibitory activity (IC50, nM), B-Raf (V600E)
Procedure: as §1

FGFR-2 = FGFR-2 (Homo sapiens (Human), UniProt P21802); assay: Kinase profiling, IC50; format: biochemical; details: read-out: Inhibitory activity (IC50, nM), FGFR-2
Procedure: [The source words this procedure for another target and reports this target under the same test.] as §1

Aurora A = Aurora A (Homo sapiens (Human), UniProt O14965); assay: Kinase profiling, % inhibition at 1.0 μM; format: biochemical; details: compound 1.0 μM; read-out: Inhibitory activity at 1.0 μM (%), Aurora A
PLK1 = PLK1 (Homo sapiens (Human), UniProt P53350); assay: Kinase profiling, % inhibition at 1.0 μM; format: biochemical; details: compound 1.0 μM; read-out: Inhibitory activity at 1.0 μM (%), PLK1
CDK2 = CDK2 (Homo sapiens (Human), UniProt P24941); assay: Kinase profiling, % inhibition at 1.0 μM; format: biochemical; details: compound 1.0 μM; read-out: Inhibitory activity at 1.0 μM (%), CDK2
CDK1 = CDK1 (Homo sapiens (Human), UniProt P06493); assay: Kinase profiling, % inhibition at 1.0 μM; format: biochemical; details: compound 1.0 μM; read-out: Inhibitory activity at 1.0 μM (%), CDK1
Aurora B = Aurora B (Homo sapiens (Human), UniProt Q96GD4); assay: Kinase profiling, % inhibition at 1.0 μM; format: biochemical; details: compound 1.0 μM; read-out: Inhibitory activity at 1.0 μM (%), Aurora B
Procedure: [The source words this procedure for another target and says it was used here with some conditions changed.] as §1

c-Kit = c-Kit (Homo sapiens (Human), UniProt P10721); assay: Kinase profiling, % inhibition at 1.0 μM; format: biochemical; details: compound 1.0 μM; read-out: Inhibitory activity at 1.0 μM (%), c-Kit
Procedure: [The source words this procedure for another target and says it was used here with some conditions changed.] as §1

PLK3 = PLK3 (Homo sapiens (Human), UniProt Q9H4B4); assay: Kinase profiling, % inhibition at 1.0 μM; format: biochemical; details: compound 1.0 μM; read-out: Inhibitory activity at 1.0 μM (%), PLK3
Procedure: [The source words this procedure for another target and says it was used here with some conditions changed.] as §1

Tie-2 = Tie-2 (Homo sapiens (Human), UniProt Q02763); assay: Kinase profiling, % inhibition at 1.0 μM; format: biochemical; details: compound 1.0 μM; read-out: Inhibitory activity at 1.0 μM (%), Tie-2
Procedure: [The source words this procedure for another target and says it was used here with some conditions changed.] as §1

PLK2 = PLK2 (Homo sapiens (Human), UniProt Q9NYY3); assay: Kinase profiling, % inhibition at 1.0 μM; format: biochemical; details: compound 1.0 μM; read-out: Inhibitory activity at 1.0 μM (%), PLK2
Procedure: [The source words this procedure for another target and says it was used here with some conditions changed.] as §1

FGFR4 = FGFR4 (Homo sapiens (Human), UniProt P22455); assay: Kinase profiling, % inhibition at 1.0 μM; format: biochemical; details: compound 1.0 μM; read-out: Inhibitory activity at 1.0 μM (%), FGFR4
Procedure: [The source words this procedure for another target and says it was used here with some conditions changed.] as §1

VEGFR1 = VEGFR1 (Homo sapiens (Human), UniProt P17948); assay: Kinase profiling, % inhibition at 1.0 μM; format: biochemical; details: compound 1.0 μM; read-out: Inhibitory activity at 1.0 μM (%), VEGFR1
Procedure: [The source words this procedure for another target and says it was used here with some conditions changed.] as §1

C-Raf, sequence (P04049 whole entry Y340D/Y341D): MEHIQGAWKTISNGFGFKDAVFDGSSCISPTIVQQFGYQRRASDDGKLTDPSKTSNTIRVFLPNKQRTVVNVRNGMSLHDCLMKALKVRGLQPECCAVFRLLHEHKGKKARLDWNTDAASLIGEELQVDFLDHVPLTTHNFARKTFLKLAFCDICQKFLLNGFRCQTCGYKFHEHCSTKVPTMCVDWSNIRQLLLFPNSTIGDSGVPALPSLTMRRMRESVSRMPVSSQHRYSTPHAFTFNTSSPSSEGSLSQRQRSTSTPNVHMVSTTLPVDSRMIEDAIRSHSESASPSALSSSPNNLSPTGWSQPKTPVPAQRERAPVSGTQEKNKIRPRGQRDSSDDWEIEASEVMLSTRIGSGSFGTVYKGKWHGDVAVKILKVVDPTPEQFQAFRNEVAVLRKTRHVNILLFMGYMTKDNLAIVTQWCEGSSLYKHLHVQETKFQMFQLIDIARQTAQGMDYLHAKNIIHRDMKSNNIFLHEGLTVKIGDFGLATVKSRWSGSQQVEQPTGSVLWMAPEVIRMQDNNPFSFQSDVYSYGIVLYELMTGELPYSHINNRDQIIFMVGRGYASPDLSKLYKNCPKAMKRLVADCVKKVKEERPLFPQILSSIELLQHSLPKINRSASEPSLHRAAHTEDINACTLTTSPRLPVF
PDGFR-β, sequence (P09619 33-1106): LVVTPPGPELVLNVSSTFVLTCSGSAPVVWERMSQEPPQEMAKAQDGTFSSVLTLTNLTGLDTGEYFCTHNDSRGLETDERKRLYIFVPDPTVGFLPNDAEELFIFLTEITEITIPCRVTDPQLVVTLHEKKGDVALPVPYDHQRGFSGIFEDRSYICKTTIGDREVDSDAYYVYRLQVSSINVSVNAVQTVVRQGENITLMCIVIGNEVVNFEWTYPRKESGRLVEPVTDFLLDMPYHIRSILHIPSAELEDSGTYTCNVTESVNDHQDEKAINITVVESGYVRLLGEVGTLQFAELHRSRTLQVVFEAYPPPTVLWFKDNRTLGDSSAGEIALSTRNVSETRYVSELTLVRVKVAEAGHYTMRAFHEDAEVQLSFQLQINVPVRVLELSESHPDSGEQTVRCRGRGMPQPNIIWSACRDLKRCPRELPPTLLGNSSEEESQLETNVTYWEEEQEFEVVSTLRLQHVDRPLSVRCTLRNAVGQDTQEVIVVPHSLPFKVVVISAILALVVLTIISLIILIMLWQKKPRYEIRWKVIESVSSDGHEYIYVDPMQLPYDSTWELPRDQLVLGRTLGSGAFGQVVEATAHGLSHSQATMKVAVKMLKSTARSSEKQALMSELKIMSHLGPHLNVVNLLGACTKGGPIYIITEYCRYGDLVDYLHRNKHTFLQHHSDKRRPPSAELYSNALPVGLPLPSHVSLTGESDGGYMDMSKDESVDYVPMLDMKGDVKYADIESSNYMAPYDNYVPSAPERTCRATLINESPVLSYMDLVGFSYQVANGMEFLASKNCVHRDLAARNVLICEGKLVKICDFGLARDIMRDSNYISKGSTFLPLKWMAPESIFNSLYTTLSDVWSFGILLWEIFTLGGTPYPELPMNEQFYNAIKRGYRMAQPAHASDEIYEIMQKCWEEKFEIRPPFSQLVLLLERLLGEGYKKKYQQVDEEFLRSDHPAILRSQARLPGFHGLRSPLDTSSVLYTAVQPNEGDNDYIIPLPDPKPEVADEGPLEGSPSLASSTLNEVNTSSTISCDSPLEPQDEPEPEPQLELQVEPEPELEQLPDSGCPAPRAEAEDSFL
Abl, sequence (P00519 whole entry): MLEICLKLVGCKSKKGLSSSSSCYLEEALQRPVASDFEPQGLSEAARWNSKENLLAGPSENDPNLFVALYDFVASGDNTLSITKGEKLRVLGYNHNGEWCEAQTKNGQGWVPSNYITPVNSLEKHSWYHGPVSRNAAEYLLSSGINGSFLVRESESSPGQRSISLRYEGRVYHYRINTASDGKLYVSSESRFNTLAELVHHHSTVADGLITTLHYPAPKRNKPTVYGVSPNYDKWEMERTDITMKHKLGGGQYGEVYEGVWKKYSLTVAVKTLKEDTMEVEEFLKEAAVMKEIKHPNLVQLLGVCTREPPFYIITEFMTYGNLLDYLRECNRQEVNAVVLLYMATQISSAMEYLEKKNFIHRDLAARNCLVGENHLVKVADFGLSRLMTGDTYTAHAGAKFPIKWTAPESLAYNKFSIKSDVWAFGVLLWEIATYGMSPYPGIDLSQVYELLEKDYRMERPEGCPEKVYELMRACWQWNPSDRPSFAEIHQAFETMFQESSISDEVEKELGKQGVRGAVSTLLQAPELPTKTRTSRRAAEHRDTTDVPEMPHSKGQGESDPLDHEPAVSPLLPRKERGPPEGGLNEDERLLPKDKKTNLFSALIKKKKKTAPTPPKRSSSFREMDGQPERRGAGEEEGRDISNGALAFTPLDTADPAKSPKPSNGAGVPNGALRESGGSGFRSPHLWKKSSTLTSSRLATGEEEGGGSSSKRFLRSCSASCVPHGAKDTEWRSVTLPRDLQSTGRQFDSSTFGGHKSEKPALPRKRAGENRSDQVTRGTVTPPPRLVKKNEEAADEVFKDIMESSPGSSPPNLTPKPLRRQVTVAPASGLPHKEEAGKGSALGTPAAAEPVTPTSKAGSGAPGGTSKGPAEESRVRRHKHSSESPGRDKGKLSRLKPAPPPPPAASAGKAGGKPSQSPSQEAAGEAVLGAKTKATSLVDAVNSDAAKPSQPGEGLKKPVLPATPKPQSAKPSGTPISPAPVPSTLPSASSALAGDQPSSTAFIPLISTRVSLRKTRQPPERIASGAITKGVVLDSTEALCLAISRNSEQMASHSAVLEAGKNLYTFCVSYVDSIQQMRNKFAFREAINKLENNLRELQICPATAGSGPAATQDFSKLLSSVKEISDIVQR
EGFR, sequence (P00533 25-1210): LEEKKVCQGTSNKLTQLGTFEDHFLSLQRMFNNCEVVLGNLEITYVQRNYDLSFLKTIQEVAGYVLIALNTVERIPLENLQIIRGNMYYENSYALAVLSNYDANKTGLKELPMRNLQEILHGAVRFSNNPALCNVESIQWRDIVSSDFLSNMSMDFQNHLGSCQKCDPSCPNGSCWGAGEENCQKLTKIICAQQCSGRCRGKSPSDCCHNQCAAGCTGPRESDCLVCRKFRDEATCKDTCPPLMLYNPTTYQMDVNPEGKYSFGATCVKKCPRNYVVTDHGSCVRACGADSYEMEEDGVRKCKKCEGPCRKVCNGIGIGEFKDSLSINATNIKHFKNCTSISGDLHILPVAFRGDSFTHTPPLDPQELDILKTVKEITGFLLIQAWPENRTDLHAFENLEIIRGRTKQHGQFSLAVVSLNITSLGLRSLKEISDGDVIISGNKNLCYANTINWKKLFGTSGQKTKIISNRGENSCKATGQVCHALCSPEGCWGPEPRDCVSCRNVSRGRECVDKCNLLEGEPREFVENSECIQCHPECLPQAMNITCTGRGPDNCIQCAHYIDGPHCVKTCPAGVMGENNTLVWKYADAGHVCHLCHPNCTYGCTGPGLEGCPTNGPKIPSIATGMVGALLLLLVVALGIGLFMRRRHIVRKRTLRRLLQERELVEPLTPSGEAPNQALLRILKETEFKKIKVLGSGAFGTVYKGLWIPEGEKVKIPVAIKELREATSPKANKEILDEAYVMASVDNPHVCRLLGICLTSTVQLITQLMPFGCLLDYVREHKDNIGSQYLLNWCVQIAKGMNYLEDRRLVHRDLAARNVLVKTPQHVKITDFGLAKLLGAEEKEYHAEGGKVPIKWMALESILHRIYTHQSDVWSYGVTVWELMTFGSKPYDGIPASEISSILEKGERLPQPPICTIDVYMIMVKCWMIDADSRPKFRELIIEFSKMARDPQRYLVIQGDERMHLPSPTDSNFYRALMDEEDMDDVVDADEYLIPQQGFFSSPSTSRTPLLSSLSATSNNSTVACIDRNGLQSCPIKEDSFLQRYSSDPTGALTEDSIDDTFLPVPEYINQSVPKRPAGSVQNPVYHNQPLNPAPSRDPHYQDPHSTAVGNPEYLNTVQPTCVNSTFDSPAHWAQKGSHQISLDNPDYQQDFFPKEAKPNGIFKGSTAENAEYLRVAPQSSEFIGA
FGFR-2, sequence (P21802 22-821): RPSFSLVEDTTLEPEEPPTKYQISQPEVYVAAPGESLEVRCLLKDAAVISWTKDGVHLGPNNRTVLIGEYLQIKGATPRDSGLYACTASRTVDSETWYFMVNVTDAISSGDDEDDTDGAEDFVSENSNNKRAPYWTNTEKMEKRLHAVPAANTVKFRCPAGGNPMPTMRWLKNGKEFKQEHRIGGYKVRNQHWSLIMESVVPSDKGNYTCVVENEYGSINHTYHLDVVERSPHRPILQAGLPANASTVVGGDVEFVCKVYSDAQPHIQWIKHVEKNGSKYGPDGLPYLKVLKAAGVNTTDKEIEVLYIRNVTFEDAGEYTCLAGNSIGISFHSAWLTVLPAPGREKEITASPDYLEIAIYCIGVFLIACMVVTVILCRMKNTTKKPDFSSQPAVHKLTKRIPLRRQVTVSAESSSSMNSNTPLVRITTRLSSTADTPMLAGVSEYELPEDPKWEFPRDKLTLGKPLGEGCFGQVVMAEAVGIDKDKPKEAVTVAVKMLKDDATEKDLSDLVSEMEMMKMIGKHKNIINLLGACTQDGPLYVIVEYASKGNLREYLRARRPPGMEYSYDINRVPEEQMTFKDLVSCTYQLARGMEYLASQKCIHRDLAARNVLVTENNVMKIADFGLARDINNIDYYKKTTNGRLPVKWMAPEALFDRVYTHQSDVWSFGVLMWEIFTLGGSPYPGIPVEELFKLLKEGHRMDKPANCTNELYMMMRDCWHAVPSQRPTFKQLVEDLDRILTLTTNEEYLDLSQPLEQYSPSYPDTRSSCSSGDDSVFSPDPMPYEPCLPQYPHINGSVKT

SMILES: Cc1ccc(C(=O)Nc2ccc(Cl)c(C(F)(F)F)c2)cc1NC(=O)c1cccc2c(N)nccc12 [Example 4, 1-amino-N-(5-((4-chloro-3-(trifluoromethyl)phenyl)carbamoyl)-2-methylphenyl)isoquinoline-5-carboxamide]
IC50 (C-Raf): 10.7 nM

SMILES: Cc1ccc(NC(=O)c2cccc(C(F)(F)F)c2)cc1NC(=O)c1cccc2c(N)nccc12 [Example 1, 1-amino-N-(2-methyl-5-(3-(trifluoromethyl)benzamido)phenyl)isoquinoline-5-carboxamide]
IC50 (VEGFR-2): 261 nM
IC50 (FGFR-1): > 2500 nM
IC50 (Abl): > 2500 nM
IC50 (FLT-3): > 2500 nM
IC50 (IGF-1R): > 2500 nM
IC50 (Her-2): > 2500 nM
IC50 (PDGFR-β): 66 nM
IC50 (EGFR): > 2500 nM
IC50 (Src): > 2500 nM
IC50 (B-Raf (WT)): 87 nM
IC50 (PDGFR-α): 393 nM
IC50 (B-Raf (V600E)): 61 nM
IC50 (FGFR-2): > 2500 nM
inhibition at 1 µM (Aurora A): 62%
inhibition at 1 µM (PLK1): -1%
IC50 (C-Raf): 6.1 nM
inhibition at 1 µM (CDK2): 6%
inhibition at 1 µM (CDK1): 9%
IC50 [1]: 210 nM
inhibition at 1 µM (Aurora B): 23%
inhibition at 1 µM (c-Kit): 34%
inhibition at 1 µM (PLK3): 9%
inhibition at 1 µM (Tie-2): 20%
inhibition at 1 µM (PLK2): 7%
inhibition at 1 µM (FGFR4): 7%
inhibition at 1 µM (VEGFR1): 9%

SMILES: CCCS(=O)(=O)Nc1ccc(F)c(C(=O)c2c[nH]c3ncc(-c4ccc(Cl)cc4)cc23)c1F [reference, Vemurafenib, reference compound]
IC50 [1]: > 10000 nM

SMILES: Cc1ccc(NC(=O)Nc2cccc(C(F)(F)F)c2)cc1NC(=O)c1cccc2c(N)nccc12 [Example 14, 1-amino-N-(2-methyl-5-(3-(3-(trifluoromethyl)phenyl)ureido)phenyl)isoquinoline-5-carboxamide]
IC50 (C-Raf): 108 nM

SMILES: CCN1CCN(Cc2ccc(NC(=O)c3ccc(C)c(NC(=O)c4cccc5c(NC(C)(C)C)nccc45)c3)cc2C(F)(F)F)CC1 [Example 6, 1-(t-butylamino)-N-(5-((4-((4-ethylpiperazin-1-yl)methyl)-3-(trifluoromethyl)phenyl)carbamoyl)-2-methylphenyl)isoquinoline-5-carboxamide]
IC50 (C-Raf): 6.4 nM

SMILES: Cc1cn(-c2cc(NC(=O)c3ccc(C)c(NC(=O)c4cccc5c(N)nccc45)c3)cc(C(F)(F)F)c2)cn1 [Example 11, 1-amino-N-(2-methyl-5-((3-(4-methyl-1H-imidazol-1-yl)-5-(trifluoromethyl)phenyl)carbamoyl)phenyl)isoquinoline-5-carboxamide]
IC50 (C-Raf): 94.8 nM

Continued by falling IC50 (C-Raf), values first:

IC50 (C-Raf): 20.5 nM
SMILES: Cc1ccc(C(=O)Nc2ccccc2)cc1NC(=O)c1cccc2c(NC(C)(C)C)nccc12 [Example 8, 1-(t-butylamino)-N-(2-methyl-5-(phenylcarbamoyl)phenyl)isoquinoline-5-carboxamide]

IC50 (C-Raf): 11 nM
IC50 [1]: 365 nM
SMILES: Cc1ccc(C(=O)Nc2cccc(C(F)(F)F)c2)cc1NC(=O)c1cccc2c(NC(C)(C)C)nccc12 [Example 2, 1-(t-butylamino)-N-(2-methyl-5-((3-(trifluoromethyl)phenyl)carbamoyl)phenyl)isoquinoline-5-carboxamide]

IC50 (C-Raf): 2.8 nM
IC50 [1]: 131 nM
SMILES: Cc1ccc(C(=O)Nc2cccc(C(F)(F)F)c2)cc1NC(=O)c1cccc2c(N)nccc12 [Example 3, 1-amino-N-(2-methyl-5-((3-(trifluoromethyl)phenyl)carbamoyl)phenyl)isoquinoline-5-carboxamide]
